Source: ChEMBL document CHEMBL1126552 (J Med Chem, 1993)

Columns and labels:
[1] = target: Adenosine A2 receptor (Rattus norvegicus, UniProt P29276+P30543); assay: Binding affinity towards adenosine A2 receptor was determined using radioligand [3H]NECA in rat brain striatum at 25 degree C; type: tissue-based
[2] = target: Adenosine receptors; A1 & A2 (Rattus norvegicus) (UniProt P29276+P25099+P30543); assay: Selectivity as ratio of Ki against A2 and A1 receptors; type: protein assay
[3] = target: T1, Adenosine receptor A1 (Rattus norvegicus, UniProt P25099); assay: Binding affinity towards adenosine A1 receptor was determined using radioligand [3H]CHA in whole rat brain membranes at 25 degree C; type: cell membranes
T1 sequence (P25099 whole entry): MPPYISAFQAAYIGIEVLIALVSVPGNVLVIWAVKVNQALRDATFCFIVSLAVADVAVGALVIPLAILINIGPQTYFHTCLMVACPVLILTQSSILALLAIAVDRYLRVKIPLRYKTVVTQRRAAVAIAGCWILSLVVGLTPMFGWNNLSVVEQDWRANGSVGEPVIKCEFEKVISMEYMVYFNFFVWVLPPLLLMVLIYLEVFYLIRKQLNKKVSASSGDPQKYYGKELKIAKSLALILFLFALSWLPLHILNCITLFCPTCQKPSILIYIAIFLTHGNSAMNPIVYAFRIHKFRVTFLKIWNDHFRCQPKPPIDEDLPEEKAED

Ki [1] [µM]	Ratio [2]	Ki [3] [µM]	Structure (SMILES)
4.22			CCCn1c(=O)c2nc([C@H](C)c3ccccc3)[nH]c2n(CCC)c1=O
3.21	95	0.0335	CCCn1c(=O)c2nc(C(CC)c3ccccc3)[nH]c2n(CCC)c1=O (centres undefined)
1.74	18		CCCn1c(=O)c2nc(CC(C)c3ccccc3)[nH]c2n(CCC)c1=O (centres undefined)
0.61			CCCC(Cc1ccccc1)c1nc2c(=O)n(CCC)c(=O)n(CCC)c2[nH]1 (centres undefined)
4.9			CCCn1c(=O)c2nc(C(C)c3ccccc3)[nH]c2n(CCC)c1=O (centres undefined)
2.72			CCCn1c(=O)c2nc([C@H]3CCC[C@@H]3c3ccccc3)[nH]c2n(CCC)c1=O
8.35			CCCn1c(=O)c2nc(C3Cc4ccccc4C3)[nH]c2n(CCC)c1=O
10.3			CCCn1c(=O)c2nc(C3CCc4ccccc4C3)[nH]c2n(CCC)c1=O (centres undefined)
12.8			CCCn1c(=O)c2nc(C(CO)Cc3ccccc3)[nH]c2n(CCC)c1=O (centres undefined)
7.5	55	0.136	CCCn1c(=O)c2nc([C@@H](CC)c3ccccc3)[nH]c2n(CCC)c1=O
12.9			CCCn1c(=O)c2nc([C@@H](C)c3ccccc3)[nH]c2n(CCC)c1=O
3.51	153		CCCn1c(=O)c2nc([C@H](CC)c3ccccc3)[nH]c2n(CCC)c1=O
1.23			CCCn1c(=O)c2nc(C(CC)Cc3ccccc3)[nH]c2n(CCC)c1=O (centres undefined)
